Experimental data as given in publication PMC8911752, “The Synthesis and Initial Evaluation of MerTK Targeted PET Agents” (Molecules, 2022).

Experiments:
Type in all cases: biochemical
Axl = molecular target: T1, Axl (Homo sapiens, UniProt P30530); assay: Microcapillary electrophoresis (MCE) kinase assay, Axl; conditions: ATP at Km, mean of two or more independent assays
T1 sequence (P30530 26-894): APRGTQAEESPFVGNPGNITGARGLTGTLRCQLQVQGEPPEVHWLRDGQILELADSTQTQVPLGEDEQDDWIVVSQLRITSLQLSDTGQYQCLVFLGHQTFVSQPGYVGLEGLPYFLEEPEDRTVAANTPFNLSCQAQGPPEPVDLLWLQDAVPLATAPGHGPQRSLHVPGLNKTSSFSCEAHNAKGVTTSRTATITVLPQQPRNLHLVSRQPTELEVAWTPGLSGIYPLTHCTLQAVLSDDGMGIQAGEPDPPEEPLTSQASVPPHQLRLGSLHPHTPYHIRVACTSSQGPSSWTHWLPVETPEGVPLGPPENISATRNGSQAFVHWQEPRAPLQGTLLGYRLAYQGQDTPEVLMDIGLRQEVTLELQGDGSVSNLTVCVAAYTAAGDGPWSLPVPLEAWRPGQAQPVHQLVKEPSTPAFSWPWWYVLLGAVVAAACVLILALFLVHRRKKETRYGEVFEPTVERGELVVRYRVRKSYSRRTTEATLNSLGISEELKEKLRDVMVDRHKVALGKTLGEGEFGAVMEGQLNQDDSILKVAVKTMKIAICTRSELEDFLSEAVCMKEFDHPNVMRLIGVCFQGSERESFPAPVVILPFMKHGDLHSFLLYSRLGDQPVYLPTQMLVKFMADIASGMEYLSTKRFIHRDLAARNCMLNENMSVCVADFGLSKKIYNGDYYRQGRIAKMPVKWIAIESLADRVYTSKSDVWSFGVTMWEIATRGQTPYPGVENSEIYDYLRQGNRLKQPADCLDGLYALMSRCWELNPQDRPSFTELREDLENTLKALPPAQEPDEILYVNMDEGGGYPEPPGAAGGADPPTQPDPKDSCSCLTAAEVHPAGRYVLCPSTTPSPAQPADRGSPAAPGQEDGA
Experimental: (§1) The inhibitory activities of standards towards MerTK, Axl, Tyro3 and Flt3 were determined in our in-house microcapillary electrophoresis (MCE) assays.
(§2) Microcapillary Electrophoresis (MCE) Assays were performed with literature method. […] All reactions were terminated by addition of 20 µL of 70 mM EDTA. After an 180 min incubation, phosphorylated and unphosphorylated substrate peptides (Table 2) were separated in buffer supplemented with 1 x CR-8 on a LabChip EZ Reader equipped with a 12-sipper chip. Data were analyzed using EZ Reader software.

Flt3 = molecular target: T2, Flt3 (Homo sapiens, UniProt P36888); assay: Microcapillary electrophoresis (MCE) kinase assay, Flt3; conditions: ATP at Km, mean of two or more independent assays
T2 sequence (P36888 27-993): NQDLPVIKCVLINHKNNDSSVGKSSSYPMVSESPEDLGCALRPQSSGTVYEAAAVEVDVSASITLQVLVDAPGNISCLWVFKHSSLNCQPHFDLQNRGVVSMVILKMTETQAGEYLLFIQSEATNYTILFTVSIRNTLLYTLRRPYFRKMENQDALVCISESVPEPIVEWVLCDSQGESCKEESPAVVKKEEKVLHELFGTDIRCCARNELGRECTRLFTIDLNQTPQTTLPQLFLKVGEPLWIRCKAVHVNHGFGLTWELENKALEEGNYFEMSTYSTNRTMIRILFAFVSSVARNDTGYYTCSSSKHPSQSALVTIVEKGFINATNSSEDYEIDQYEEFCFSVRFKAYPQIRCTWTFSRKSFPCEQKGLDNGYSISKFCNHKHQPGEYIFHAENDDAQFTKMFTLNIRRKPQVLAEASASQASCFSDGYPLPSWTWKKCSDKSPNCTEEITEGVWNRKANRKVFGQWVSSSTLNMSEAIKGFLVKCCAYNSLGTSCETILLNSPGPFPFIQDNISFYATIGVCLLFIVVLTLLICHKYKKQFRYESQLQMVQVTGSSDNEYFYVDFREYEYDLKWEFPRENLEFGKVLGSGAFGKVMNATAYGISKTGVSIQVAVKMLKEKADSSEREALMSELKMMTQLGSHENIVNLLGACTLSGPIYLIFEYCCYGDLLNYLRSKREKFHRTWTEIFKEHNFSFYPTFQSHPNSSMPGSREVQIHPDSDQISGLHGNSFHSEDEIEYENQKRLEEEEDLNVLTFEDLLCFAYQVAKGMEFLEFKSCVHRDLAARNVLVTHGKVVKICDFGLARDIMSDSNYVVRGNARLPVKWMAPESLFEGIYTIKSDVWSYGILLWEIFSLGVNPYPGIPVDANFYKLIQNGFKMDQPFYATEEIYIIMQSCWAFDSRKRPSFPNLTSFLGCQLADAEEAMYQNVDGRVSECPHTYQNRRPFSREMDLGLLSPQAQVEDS
Experimental: as §1, §2

MerTK = molecular target: T3, MerTK (Homo sapiens, UniProt Q12866); assay: Microcapillary electrophoresis (MCE) kinase assay, MerTK; conditions: for IC50: MCE assay, ATP at Km, mean of two or more independent assays; for selectivity over Axl, Tyro3 and Flt3: MerTK versus Axl, Tyro3, Flt3 in MCE assays
T3 sequence (Q12866 21-999): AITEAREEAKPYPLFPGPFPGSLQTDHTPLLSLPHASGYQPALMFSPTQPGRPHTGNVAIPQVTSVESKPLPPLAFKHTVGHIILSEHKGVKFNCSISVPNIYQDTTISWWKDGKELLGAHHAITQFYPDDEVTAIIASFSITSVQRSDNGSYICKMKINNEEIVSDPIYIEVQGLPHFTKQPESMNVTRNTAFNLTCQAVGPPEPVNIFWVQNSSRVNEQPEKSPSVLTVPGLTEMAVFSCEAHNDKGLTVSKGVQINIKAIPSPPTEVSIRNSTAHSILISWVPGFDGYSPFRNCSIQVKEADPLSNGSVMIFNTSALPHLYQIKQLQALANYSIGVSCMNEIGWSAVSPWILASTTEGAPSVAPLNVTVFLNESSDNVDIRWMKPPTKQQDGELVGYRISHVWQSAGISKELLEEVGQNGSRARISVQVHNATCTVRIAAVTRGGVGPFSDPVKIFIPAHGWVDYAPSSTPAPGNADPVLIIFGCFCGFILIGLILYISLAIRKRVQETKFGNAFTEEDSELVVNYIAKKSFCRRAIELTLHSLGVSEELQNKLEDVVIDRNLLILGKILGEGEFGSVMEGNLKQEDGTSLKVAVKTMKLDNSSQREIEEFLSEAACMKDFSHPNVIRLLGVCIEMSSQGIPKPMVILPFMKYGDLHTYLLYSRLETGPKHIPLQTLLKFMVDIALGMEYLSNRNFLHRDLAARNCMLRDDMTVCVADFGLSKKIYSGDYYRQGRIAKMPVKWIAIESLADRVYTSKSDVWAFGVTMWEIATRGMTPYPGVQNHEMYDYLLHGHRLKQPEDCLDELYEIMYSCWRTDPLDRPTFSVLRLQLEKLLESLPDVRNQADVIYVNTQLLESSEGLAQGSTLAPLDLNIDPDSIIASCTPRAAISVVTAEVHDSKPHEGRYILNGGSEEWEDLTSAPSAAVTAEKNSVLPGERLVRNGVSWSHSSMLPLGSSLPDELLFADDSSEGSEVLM
Experimental: as §1, §2

SMILES	IC50 (Axl)	IC50 (Flt3)	IC50 (MerTK)	selectivity over Axl, Tyro3 and Flt3 (MerTK)
C[C@H](Nc1ncc2c(C3CCN(C)CC3)cn([C@H]3CC[C@H](O)CC3)c2n1)c1ccccc1 [MerTK-2]	1.7 µM	> 30 µM	0.061 µM	Good selectivity
CCC[C@H](C)Nc1ncc2c(C3CCN(CCF)CC3)cn([C@H]3CC[C@H](O)CC3)c2n1 [MerTK-5]	1.1 µM	1 µM	0.015 µM	good selectivity
C[C@H](Nc1ncc2c(C3CCN(C(=S)Nc4ccc(CC5CN(CC(=O)O)CCN(CC(=O)O)CCN5CC(=O)O)cc4)CC3)cn([C@H]3CC[C@H](O)CC3)c2n1)c1ccccc1 (stereo partly drawn) [MerTK-4]	4.1 µM	> 30 µM	0.013 µM	
C[C@H](Nc1ncc2c(C3CCN(CCF)CC3)cn([C@H]3CC[C@H](O)CC3)c2n1)c1ccccc1 [MerTK-6]	2.1 µM	5.5 µM	0.037 µM	good selectivity
